Measurements from ChEMBL document CHEMBL1144812, “Small molecules with structural similarities to siderophores as novel antimicrobials against Mycobacterium tuberculosis and Yersinia pestis” (Bioorg Med Chem Lett, 2008).

How the values were obtained:
Yersinia pestis [1] = assay: Ratio of MIC90 for Yersinia pestis KIM6-2082.1+ in iron rich PMH-D medium to MIC90 for Yersinia pestis KIM6-2082.1+ in presence of iron limiting PMH-D medium; assay type: functional
[2] = tested on: Mycobacterium tuberculosis; assay: Antimycobacterial activity against Mycobacterium tuberculosis H37Rv in presence of iron rich GAST-D medium; assay type: functional, organism-based
Yersinia pestis [3] = assay: Antimicrobial activity against Yersinia pestis KIM6-2082.1+ in presence of iron rich PMH-D medium; assay type: functional, organism-based
[4] = tested on: Mycobacterium tuberculosis; assay: Antimycobacterial activity against Mycobacterium tuberculosis H37Rv in presence of iron deficient GAST-D medium; assay type: functional, organism-based
[5] = tested on: Mycobacterium tuberculosis; assay: Ratio of MIC90 for Mycobacterium tuberculosis H37Rv in iron rich GAST-D medium to MIC90 for Mycobacterium tuberculosis H37Rv in presence of iron limiting GAST-D medium; assay type: functional
Yersinia pestis [6] = assay: Antimicrobial activity against Yersinia pestis KIM6-2082.1+ in presence of iron limiting PMH-D medium; assay type: functional, organism-based
[7] = Cytotoxicity against human HeLa cells after 24 hrs; assay type: cell-based; conditions: read-out: CD50
[8] = target: T1, AMP-binding enzyme family protein (Yersinia pestis, UniProt Q56950); assay: Inhibition of Yersinia pestis YbtE assessed as incorporation of [3H]salicyl group to HMWP2 protein
T1 sequence (Q56950 whole entry): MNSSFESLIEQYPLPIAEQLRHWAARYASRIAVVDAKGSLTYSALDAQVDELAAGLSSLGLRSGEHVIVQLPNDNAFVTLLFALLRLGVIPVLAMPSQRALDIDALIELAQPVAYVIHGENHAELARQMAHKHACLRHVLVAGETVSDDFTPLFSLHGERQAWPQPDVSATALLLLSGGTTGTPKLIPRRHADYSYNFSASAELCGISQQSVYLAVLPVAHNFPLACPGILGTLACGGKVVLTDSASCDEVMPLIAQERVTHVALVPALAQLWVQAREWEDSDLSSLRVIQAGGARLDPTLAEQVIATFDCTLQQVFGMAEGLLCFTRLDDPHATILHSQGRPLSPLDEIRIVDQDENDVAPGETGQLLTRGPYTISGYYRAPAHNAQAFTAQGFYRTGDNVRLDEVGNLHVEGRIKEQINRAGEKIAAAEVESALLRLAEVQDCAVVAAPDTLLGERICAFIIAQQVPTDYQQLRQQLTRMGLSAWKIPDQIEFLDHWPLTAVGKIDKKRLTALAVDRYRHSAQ

SMILES	Ratio (Yersinia pestis [1])	IC50 [2]	MIC90 [2]	IC50 (Yersinia pestis [3])	MIC90 (Yersinia pestis [3])	IC50 [4]	MIC90 [4]	Ratio [5]	IC50 (Yersinia pestis [6])	MIC90 (Yersinia pestis [6])	CC50 at 24 h [7]	IC50 [8]
Cc1ccccc1NC(=S)N1N=C(c2ccccc2O)C[C@H]1c1ccc(O)cc1	>4	83 µM	417 µM	> 19 µM	> 19 µM	29 µM	63 µM	7	3 µM	5 µM	21 µM	0.7 µM
COc1cc([C@@H]2CC(c3ccc(O)cc3O)=NN2C(=S)Nc2ccccc2)ccc1O	>75	333 µM	> 500 µM	> 150 µM	> 150 µM	84 µM	125 µM	>4	0.6 µM	2 µM	30 µM	0.7 µM
Cc1ccccc1NC(=S)N1N=C(c2ccccc2O)C[C@H]1c1ccccc1O	>4	42 µM	> 500 µM	> 19 µM	> 19 µM	28 µM	104 µM	>5	2 µM	5 µM	17 µM	1 µM
Cc1ccc(NC(=S)N2N=C(c3ccccc3O)C[C@H]2c2ccccc2O)cc1	>5	208 µM	> 250 µM	> 9 µM	> 9 µM	27 µM	63 µM	>4	0.8 µM	2 µM	11 µM	0.5 µM
COc1cc([C@@H]2CC(c3ccccc3O)=NN2C(=S)Nc2ccccc2C)ccc1O	>2	96 µM	> 500 µM	> 19 µM	> 19 µM	101 µM	417 µM	>1	3 µM	9 µM	15 µM	1 µM
Oc1ccccc1C1=NN(C(=S)Nc2ccccc2)[C@H](c2ccccc2O)C1	>10	65 µM	100 µM	> 19 µM	> 19 µM	29 µM	83 µM	1	0.7 µM	2 µM	3 µM	0.6 µM
COc1ccccc1NC(=S)N1N=C(c2ccc(O)cc2O)C[C@H]1c1ccc(O)cc1	>50	156 µM	250 µM	> 150 µM	> 150 µM	80 µM	125 µM	2	0.7 µM	3 µM	23 µM	0.6 µM
Oc1ccccc1C1=NN(C(=S)Nc2ccccc2)[C@H](c2ccco2)C1	>5	72 µM	208 µM	> 9 µM	> 9 µM	73 µM	250 µM	1	1 µM	2 µM	3 µM	0.3 µM
COc1ccc(NC(=S)N2N=C(c3ccc(O)cc3O)C[C@H]2c2ccc(O)cc2)cc1	>30	250 µM	> 500 µM	> 150 µM	> 150 µM	63 µM	167 µM	>3	0.4 µM	5 µM	62 µM	> 12.5 µM
COc1ccc(NC(=S)N2N=C(c3ccccc3O)C[C@H]2c2ccccc2O)cc1	>0.7	167 µM	> 250 µM	> 2 µM	> 2 µM	28 µM	63 µM	>4	1 µM	3 µM	1 µM	0.2 µM
